Source: the NIST ThermoML archive (doi:10.1016/j.jct.2005.11.005)
± gives the expanded uncertainty stated by the source.

Experiments:
[1] = DTA; for Normal melting temperature: Crystal
[2] = Molar enthalpy of transition or fusion; conditions: Crystal; DSC

Row | Normal melting temperature [1] | Molar enthalpy of transition or fusion [2] | Glass transition temperature ([1]; Glass) | SMILES
1 | 99.10 ± 0.5 °C | 26.2 ± 0.669 kcal/mol |  | O.O.OC[C@H]1O[C@H](O[C@H]2O[C@H](CO)[C@@H](O)[C@H](O)[C@H]2O)[C@H](O)[C@@H](O)[C@@H]1O [D-(+)-trehalose dihydrate]
2 | 209.4 ± 0.5 °C | 12.8 ± 0.669 kcal/mol | 120.0 ± 2 °C | OC[C@H]1O[C@H](O[C@H]2O[C@H](CO)[C@@H](O)[C@H](O)[C@H]2O)[C@H](O)[C@@H](O)[C@@H]1O [α-trehalose]
